Assay results published in PubChem BioAssay AID330 (DTP/NCI, 2004).
Several values for one entry are separate records, joined by “and”; a condition that tells them apart may be missing. Equal entries are not always repeated. Toxic doses and inconclusive results are not listed.

Tested on: P388 leukemia ip, CD2F1 mice, survival T/C
Assay: NCI In Vivo Anticancer Drug Screen. Data for tumor model P388 Leukemia (intraperitoneal) in CD2F1 (CDF1) mice
Settings: endpoint: median survival time, higher = longer survival
Method in brief: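 Mice carrying the transplanted tumor received test compound or vehicle. Survival was recorded in each group, and the value is the treated-group measurement divided by that of the vehicle-treated control group.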

[1] = dose: 50.0 mg/kg/injection, schedule: Q01DX005 (ip), vehicle: saline
[2] = dose: 100.0 mg/kg/injection, schedule: Q01DX005 (ip), vehicle: saline
[3] = dose: 200.0 mg/kg/injection, schedule: Q01DX005 (ip), vehicle: saline
[4] = dose: 25.0 mg/kg/injection, schedule: Q01DX009 (ip), vehicle: saline with Tween-80
[5] = dose: 50.0 mg/kg/injection, schedule: Q01DX009 (ip), vehicle: saline with Tween-80
[6] = dose: 100.0 mg/kg/injection, schedule: Q01DX009 (ip), vehicle: saline with Tween-80
[7] = dose: 100.0 mg/kg/injection, schedule: Q01DX001 (ip), vehicle: saline with Tween-80
[8] = dose: 200.0 mg/kg/injection, schedule: Q01DX001 (ip), vehicle: saline with Tween-80
[9] = dose: 400.0 mg/kg/injection, schedule: Q01DX001 (ip), vehicle: saline with Tween-80
[10] = dose: 6.25 mg/kg/injection, schedule: Q01DX009 (ip), vehicle: saline
[11] = dose: 100.0 mg/kg/injection, schedule: Q04DX002 (ip), vehicle: saline with Tween-80
[12] = dose: 200.0 mg/kg/injection, schedule: Q04DX002 (ip), vehicle: saline with Tween-80
[13] = dose: 200.0 mg/kg/injection, schedule: Q01DX009 (ip), vehicle: saline with Tween-80
[14] = dose: 25.0 mg/kg/injection, schedule: Q01DX009 (ip), vehicle: saline

## N#CC1(OC2OC(CO)C(O)C(O)C2O)C=CC(OS(=O)(=O)O)C1 (stereo unspecified)
dose: 25.0 mg/kg/injection, schedule: Q01DX005 (ip), vehicle: saline
  T/C: 103 % of control
[1]
  T/C: 100 % of control
[2]
  T/C: 116 % of control
[3]
  T/C: 97 % of control

## O=C(NCCCl)Oc1c(Cl)cc(Cl)cc1Cl
dose: 12.5 mg/kg/injection, schedule: Q01DX005 (ip), vehicle: Klucel (hydroxypropylcellulose) (HPC)
  T/C: 106 % of control
dose: 25.0 mg/kg/injection, schedule: Q01DX005 (ip), vehicle: Klucel (hydroxypropylcellulose) (HPC)
  T/C: 104 % of control

## CCC(c1ccc(OC)cc1)C(CC)c1ccc(O)c(CN2CCN(C)CC2)c1 (stereo unspecified)
[4]
  T/C: 123 % of control
[5]
  T/C: 119 % of control
[6]
  T/C: 119 % of control

## CCOC(=O)Nc1nc2ccc(NC(C)=O)cc2s1
dose: 6.25 mg/kg/injection, schedule: Q01DX009 (ip), vehicle: Klucel (hydroxypropylcellulose) (HPC)
  T/C: 104 % of control
dose: 12.5 mg/kg/injection, schedule: Q01DX009 (ip), vehicle: Klucel (hydroxypropylcellulose) (HPC)
  T/C: 105 % of control
dose: 25.0 mg/kg/injection, schedule: Q01DX009 (ip), vehicle: Klucel (hydroxypropylcellulose) (HPC)
  T/C: 102 % of control
dose: 50.0 mg/kg/injection, schedule: Q01DX009 (ip), vehicle: Klucel (hydroxypropylcellulose) (HPC)
  T/C: 96 % of control

## c1ccc2oc(C34OC5CC(CC(C5)O3)O4)nc2c1
[7]
  T/C: 101 % of control
[8]
  T/C: 99 % of control
[9]
  T/C: 100 % of control

## O=C(O)/C(=C/c1ccc(/C=C(/C(=O)O)c2ccccc2)o1)c1ccccc1
[7]
  T/C: 101 % of control
[8]
  T/C: 97 % of control
[9]
  T/C: 101 % of control

## C[n+]1ccn2cc(S(=O)(=O)[O-])ccc21
dose: 3.12 mg/kg/injection, schedule: Q01DX009 (ip), vehicle: saline
  T/C: 92 % of control
[10]
  T/C: 95 % of control

## CSC(=S)n1nc(-c2ccccc2)c(N=Nc2cccc(C)c2C)c1-c1ccccc1
[11]
  T/C: 90 % of control
[12]
  T/C: 89 % of control
dose: 400.0 mg/kg/injection, schedule: Q04DX002 (ip), vehicle: saline with Tween-80
  T/C: 102 % of control

## C=C1CC2(CC(C(=C)C)CC=C2C)OC1=O (stereo unspecified)
dose: 100.0 mg/kg/injection, schedule: Q01DX001 (ip), vehicle: saline
  T/C: 101 % of control
dose: 200.0 mg/kg/injection, schedule: Q01DX001 (ip), vehicle: saline
  T/C: 104 % of control
dose: 400.0 mg/kg/injection, schedule: Q01DX001 (ip), vehicle: saline
  T/C: 109 % of control

## CC(C)=CCc1ccc2c(c1)CCCN2C
[11]
  T/C: 108 % of control
[12]
  T/C: 108 % of control

## CCCCN(CCCC)CCN1C(=O)c2ccccc2S1(=O)=O
[1]
  T/C: 104 % of control
[2]
  T/C: 109 % of control
[3]
  T/C: 102 % of control

## O=C(CNC(=O)c1ccc(Cl)cc1Cl)N/N=C/c1ccc(Cl)c(Cl)c1
dose: 3.13 mg/kg/injection, schedule: Q01DX009 (ip), vehicle: saline with Tween-80
  T/C: 104 % of control
dose: 6.25 mg/kg/injection, schedule: Q01DX009 (ip), vehicle: saline with Tween-80
  T/C: 108 % of control
dose: 12.5 mg/kg/injection, schedule: Q01DX009 (ip), vehicle: saline with Tween-80
  T/C: 104 % of control

## CC(C)NC(=O)OCc1c(COC(=O)NC(C)C)c(-c2ccc(Cl)c(Cl)c2)n2c1C[C@@H](O)C2
dose: 2.5 mg/kg/injection, schedule: Q01DX005 (ip), vehicle: Klucel (hydroxypropylcellulose) (HPC)
  T/C: 120 % of control
dose: 5.0 mg/kg/injection, schedule: Q01DX005 (ip), vehicle: Klucel (hydroxypropylcellulose) (HPC)
  T/C: 120 % of control
dose: 50.0 mg/kg/injection, schedule: Q01DX005 (ip), vehicle: Klucel (hydroxypropylcellulose) (HPC)
  T/C: 150 % of control
dose: 100.0 mg/kg/injection, schedule: Q01DX005 (ip), vehicle: Klucel (hydroxypropylcellulose) (HPC)
  T/C: 166 % of control

## CN(C)c1ccc2c(c1)C(=O)N(OS(C)(=O)=O)C2=O
dose: 25.0 mg/kg/injection, schedule: Q01DX005 (ip), vehicle: saline with Tween-80
  T/C: 111 % of control
dose: 50.0 mg/kg/injection, schedule: Q01DX005 (ip), vehicle: saline with Tween-80
  T/C: 108 % of control and 117 % of control
dose: 100.0 mg/kg/injection, schedule: Q01DX005 (ip), vehicle: saline with Tween-80
  T/C: 106 % of control

## NCC(=O)c1ccc2oc3ccccc3c2c1
dose: 100.0 mg/kg/injection, schedule: Q01DX009 (ip), vehicle: Klucel (hydroxypropylcellulose) (HPC)
  T/C: 112 % of control
dose: 200.0 mg/kg/injection, schedule: Q01DX009 (ip), vehicle: Klucel (hydroxypropylcellulose) (HPC)
  T/C: 118 % of control

## CN1C(=O)N(C)C(O)(/C=C/c2c(Cl)cccc2Cl)N(C)C1=O
[4]
  T/C: 106 % of control and 92 % of control
[5]
  T/C: 94 % of control and 96 % of control
[6]
  T/C: 93 % of control and 96 % of control
[13]
  T/C: 89 % of control and 91 % of control

## C=CC(=NC(C)C)N(C)c1ccccc1
[10]
  T/C: 101 % of control
dose: 12.5 mg/kg/injection, schedule: Q01DX009 (ip), vehicle: saline
  T/C: 96 % of control
[14]
  T/C: 96 % of control

## CCOC(=O)NC(=S)Nc1ncn[nH]1
dose: 50.0 mg/kg/injection, schedule: Q04DX003 (ip), vehicle: saline with Tween-80
  T/C: 100 % of control
dose: 100.0 mg/kg/injection, schedule: Q04DX003 (ip), vehicle: saline with Tween-80
  T/C: 95 % of control
dose: 200.0 mg/kg/injection, schedule: Q04DX003 (ip), vehicle: saline with Tween-80
  T/C: 100 % of control
dose: 400.0 mg/kg/injection, schedule: Q04DX003 (ip), vehicle: saline with Tween-80
  T/C: 99 % of control

## CC(=O)C(C)(CC#N)C(CC=O)CCC#N (stereo unspecified)
dose: 60.0 mg/kg/injection, schedule: Q01DX005 (ip), vehicle: saline with Tween-80
  T/C: 111 % of control

## [Ni+2].[O-]/C(=N\N=C/c1ccco1)c1ccccc1O.[O-]/C(=N\N=C/c1ccco1)c1ccccc1O
dose: 50.0 mg/kg/injection, schedule: Q04DX002 (ip), vehicle: saline with Tween-80
  T/C: 86 % of control
[11]
  T/C: 93 % of control
[12]
  T/C: 93 % of control

## Cc1ccc(NNC2=NC(=S)NC(=O)C2)cc1
[5]
  T/C: 111 % of control
[6]
  T/C: 95 % of control
[13]
  T/C: 104 % of control

## CCOC(=S)SC1CC2(C)C(CCC3C2CCC2(C)C(OC(C)=O)CCC32)CC1=O (stereo unspecified)
dose: 100.0 mg/kg/injection, schedule: Q04DX003 (ip), vehicle: saline
  T/C: 96 % of control
dose: 200.0 mg/kg/injection, schedule: Q04DX003 (ip), vehicle: saline
  T/C: 92 % of control
dose: 400.0 mg/kg/injection, schedule: Q04DX003 (ip), vehicle: saline
  T/C: 89 % of control

## CCCC#CC#N
dose: 50.0 mg/kg/injection, schedule: Q01DX009 (ip), vehicle: olive oil, sesame oil, peanut oil
  T/C: 116 % of control

## Clc1ccccc1OCc1cnc[nH]1
[14]
  T/C: 102 % of control
dose: 50.0 mg/kg/injection, schedule: Q01DX009 (ip), vehicle: saline
  T/C: 111 % of control
dose: 100.0 mg/kg/injection, schedule: Q01DX009 (ip), vehicle: saline
  T/C: 117 % of control

## CS(=O)CCCN=C=S (stereo unspecified)
dose: 18.75 mg/kg/injection, schedule: Q01DX009 (ip), vehicle: saline with Tween-80
  T/C: 111 % of control
dose: 37.5 mg/kg/injection, schedule: Q01DX009 (ip), vehicle: saline with Tween-80
  T/C: 110 % of control
dose: 75.0 mg/kg/injection, schedule: Q01DX009 (ip), vehicle: saline with Tween-80
  T/C: 111 % of control

## C[C@@H]1CC[C@@]2(OC1)O[C@H]1C[C@H]3[C@@H]4CC=C5C=CCC[C@]5(C)[C@H]4CC[C@]3(C)[C@H]1[C@@H]2C
dose: 2.25 mg/kg/injection, schedule: Q01DX005 (ip), vehicle: Klucel (hydroxypropylcellulose) (HPC)
  T/C: 100 % of control
dose: 4.5 mg/kg/injection, schedule: Q01DX005 (ip), vehicle: Klucel (hydroxypropylcellulose) (HPC)
  T/C: 100 % of control
dose: 9.0 mg/kg/injection, schedule: Q01DX005 (ip), vehicle: Klucel (hydroxypropylcellulose) (HPC)
  T/C: 105 % of control
dose: 18.0 mg/kg/injection, schedule: Q01DX005 (ip), vehicle: Klucel (hydroxypropylcellulose) (HPC)
  T/C: 100 % of control
dose: 36.0 mg/kg/injection, schedule: Q01DX005 (ip), vehicle: Klucel (hydroxypropylcellulose) (HPC)
  T/C: 98 % of control

## C=C1CCC2C(C)(CO)C(O)CCC2(C)C1CCC1=CCOC1=O (stereo unspecified)
dose: 11.0 mg/kg/injection, schedule: Q01DX005 (ip), vehicle: Klucel (hydroxypropylcellulose) (HPC)
  T/C: 110 % of control
dose: 22.0 mg/kg/injection, schedule: Q01DX005 (ip), vehicle: Klucel (hydroxypropylcellulose) (HPC)
  T/C: 99 % of control
dose: 44.0 mg/kg/injection, schedule: Q01DX005 (ip), vehicle: Klucel (hydroxypropylcellulose) (HPC)
  T/C: 99 % of control
dose: 88.0 mg/kg/injection, schedule: Q01DX005 (ip), vehicle: Klucel (hydroxypropylcellulose) (HPC)
  T/C: 97 % of control
